Reference: patent US20210198256A1, “COMPOUNDS FOR THE DEGRADATION OF BRD9 OR MTH1” (C4 Therapeutics, Inc., priority 2018, published 2021)

What follows are molecules tested on SMARTCAR-MTH1-wt-HiBiT (Jurkat.7 cells) (assay: HiBit Lytic Assay (HiBit DC50, MTH1 degraders of Table 2)). Conditions: Jurkat.7 SMARTCAR-MTH1-wt-HiBiT cells, compound treatment time 4 hr, 11-point half log dose response.
Type: cell-based, human
How it was run: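 Jurkat.7 cells expressing SMARTCAR-MTH1-wt-HiBiT were treated at 37° C with 11-point half-log dilutions (top final 1000 nM or 833 nM, duplicates, 0.1% DMSO). Remaining HiBiT-tagged protein was read by Nano-Glo HiBiT lytic luminescence, normalized to media-only and DMSO controls.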

DC50, < 100 nM:
CNC(=O)c1cnc2ccc(CNC(=O)CCCCCCCCNC(=O)COc3cccc4c3C(=O)N(C3CCC(=O)NC3=O)C4=O)cc2c1Nc1ccccc1 (stereo not shown) [Compound 456, 6-((9-(2-((2-(2,6-dioxopiperidin-3-yl)-1,3-dioxoisoindolin-4-yl)oxy)acetamido)nonanamido)methyl)-N-methyl-4-(phenylamino)quinoline-3-carboxamide]
CC(C)NC(=O)c1cnc2ccc(NCCCCCCCCCCNC(=O)COc3cccc4c3C(=O)N(C3CCC(=O)NC3=O)C4=O)cc2c1Nc1ccccc1 (stereo not shown) [Compound 457, 6-((10-(2-((2-(2,6-dioxopiperidin-3-yl)-1,3-dioxoisoindolin-4-yl)oxy)acetamido)decyl)amino)-N-isopropyl-4-(phenylamino)quinoline-3-carboxamide]
CNC(=O)c1cnc2ccc(C(=O)NCCCCCCNC(=O)COc3cccc4c3C(=O)N(C3CCC(=O)NC3=O)C4=O)cc2c1Nc1ccccc1 (stereo not shown) [Compound 458, N6-(6-(2-((2-(2,6-dioxopiperidin-3-yl)-1,3-dioxoisoindolin-4-yl)oxy)acetamido)hexyl)-N3-methyl-4-(phenylamino)quinoline-3,6-dicarboxamide]
CNC(=O)c1cnc2ccc(CC(=O)NCCCCCCCCNC(=O)COc3cccc4c3C(=O)N(C3CCC(=O)NC3=O)C4=O)cc2c1Nc1ccccc1 (stereo not shown) [Compound 459, 6-(2-((8-(2-((2-(2,6-dioxopiperidin-3-yl)-1,3-dioxoisoindolin-4-yl)oxy)acetamido)octyl)amino)-2-oxoethyl)-N-methyl-4-(phenylamino)quinoline-3-carboxamide]
NC(=O)c1cnc2ccc(NCCCCCCCCCCNC(=O)CNc3cccc4c3C(=O)N(C3CCC(=O)NC3=O)C4=O)cc2c1Nc1ccccc1 (stereo not shown) [Compound 464, 6-((10-(2-((2-(2,6-dioxopiperidin-3-yl)-1,3-dioxoisoindolin-4-yl)amino)acetamido)decyl)amino)-4-(phenylamino)quinoline-3-carboxamide]
NC(=O)c1cnc2ccc(NCCCCCCCCCCNC(=O)COc3cccc4c3C(=O)N(C3CCC(=O)NC3=O)C4=O)cc2c1Nc1ccccc1 (stereo not shown) [Compound 465, 6-((10-(2-((2-(2,6-dioxopiperidin-3-yl)-1,3-dioxoisoindolin-4-yl)oxy)acetamido)decyl)amino)-4-(phenylamino)quinoline-3-carboxamide]
NC(=O)c1cnc2ccc(NCCCCCCCCNC(=O)COc3cccc4c3C(=O)N(C3CCC(=O)NC3=O)C4=O)cc2c1Nc1ccccc1 (stereo not shown) [Compound 466, 6-((8-(2-((2-(2,6-dioxopiperidin-3-yl)-1,3-dioxoisoindolin-4-yl)oxy)acetamido)octyl)amino)-4-(phenylamino)quinoline-3-carboxamide]
NC(=O)c1cnc2ccc(NC(=O)CCCCCCCCCNC(=O)COc3cccc4c3C(=O)N(C3CCC(=O)NC3=O)C4=O)cc2c1Nc1ccccc1 (stereo not shown) [Compound 467, 6-(10-(2-((2-(2,6-dioxopiperidin-3-yl)-1,3-dioxoisoindolin-4-yl)oxy)acetamido)decanamido)-4-(phenylamino)quinoline-3-carboxamide]
CNC(=O)c1cnc2ccc(-c3ccc(C(=O)NCCCCNC(=O)CN(C)c4cccc5c4C(=O)N(C4CCC(=O)NC4=O)C5=O)cc3)cc2c1Nc1ccccc1 (stereo not shown) [Compound 471, 6-(4-((4-(2-((2-(2,6-dioxopiperidin-3-yl)-1,3-dioxoisoindolin-4-yl)(methyl)amino)acetamido)butyl)carbamoyl)phenyl)-N-methyl-4-(phenylamino)quinoline-3-carboxamide]
CNC(=O)c1cnc2ccc(-c3ccc(C(=O)NCCCNC(=O)CNc4cccc5c4C(=O)N(C4CCC(=O)NC4=O)C5=O)cc3)cc2c1Nc1ccccc1 (stereo not shown) [Compound 472, 6-(4-((3-(2-((2-(2,6-dioxopiperidin-3-yl)-1,3-dioxoisoindolin-4-yl)amino)acetamido)propyl)carbamoyl)phenyl)-N-methyl-4-(phenylamino)quinoline-3-carboxamide]
CNC(=O)c1cnc2ccc(-c3ccc(C(=O)NCCCNC(=O)CN(C)c4cccc5c4C(=O)N(C4CCC(=O)NC4=O)C5=O)cc3)cc2c1Nc1ccccc1 (stereo not shown) [Compound 473, 6-(4-((3-(2-((2-(2,6-dioxopiperidin-3-yl)-1,3-dioxoisoindolin-4-yl)(methyl)amino)acetamido)propyl)carbamoyl)phenyl)-N-methyl-4-(phenylamino)quinoline-3-carboxamide]
CNC(=O)c1cnc2ccc(-c3ccc(C(=O)NCCCCNC(=O)CN(C)c4cccc5c4C(=O)N(C4CCC(=O)NC4=O)C5=O)cc3)cc2c1Nc1ccccc1 (stereo not shown) [Compound 474, 6-(4-((4-(2-((2-(2,6-dioxopiperidin-3-yl)-1,3-dioxoisoindolin-4-yl)(methyl)amino)acetamido)butyl)carbamoyl)phenyl)-N-methyl-4-(phenylamino)quinoline-3-carboxamide]
CNC(=O)c1cnc2cc(OC)c(-c3ccc(C(=O)NCCCCNC(=O)COc4cccc5c4C(=O)N(C4CCC(=O)NC4=O)C5=O)cc3)cc2c1Nc1ccccc1 (stereo not shown) [Compound 475, 6-(4-((4-(2-((2-(2,6-dioxopiperidin-3-yl)-1,3-dioxoisoindolin-4-yl)oxy)acetamido)butyl)carbamoyl)phenyl)-7-methoxy-N-methyl-4-(phenylamino)quinoline-3-carboxamide]
